Measurements: US6653478B2, “Substituted benzimidazol-2-ones as vasopressin receptor antagonists and neuropeptide Y modulators” (Ortho-McNeil Pharmaceutical, Inc., priority 2000, dated 2003)

Assays:
[1] = biological target: T1, NPY2 receptors (Homo sapiens, UniProt P49146); assay: Neuropeptide Y receptor binding assay (125I-PYY, KAN-TS cell membranes); conditions: 10 μM compound; read-out: NPY-2@10, % Inh
T1 construct: Cell Membranes from KAN-TS cells having NPY2 receptors; endogenous in cells; host or cells: KAN-TS cells (membranes)
T1 sequence (P49146 1-381): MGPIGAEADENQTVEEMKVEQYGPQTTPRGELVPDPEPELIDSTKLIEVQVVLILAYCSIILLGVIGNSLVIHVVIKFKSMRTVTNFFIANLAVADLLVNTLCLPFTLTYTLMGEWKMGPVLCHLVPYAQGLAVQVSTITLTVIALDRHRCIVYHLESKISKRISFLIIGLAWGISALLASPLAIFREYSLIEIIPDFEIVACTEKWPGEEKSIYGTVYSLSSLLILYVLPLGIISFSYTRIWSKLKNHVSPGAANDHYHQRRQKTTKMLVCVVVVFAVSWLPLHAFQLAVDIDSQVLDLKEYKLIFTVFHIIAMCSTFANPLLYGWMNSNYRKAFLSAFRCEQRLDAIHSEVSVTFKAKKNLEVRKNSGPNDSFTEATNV
Experimental: Neuropeptide Y Receptor Binding Assay
Load 96-well RIA racks with RIA vials (Sarstedt, cat. #73.1055)
Prepare membranes—use 2×15 cm confluent plates/96-well assay plate
Add 14 mls Homogenization buffer/cell pellet
Homogenize at high speed for 15 seconds
Transfer to 15 ml conical tube and spin 5′ at 4° C. at setting 3 in RT6000 centrifuge
Transfer supernatant to 30 ml Corex tube
Balance and spin 25′ at 15,000 rpm at 4° C.
Resuspend pellet in 10 mls Binding buffer
Homogenize at high speed for 15 sec.
Bring volume up to 50 mls in Binding buffer (25 mls/2×96-well plates)
Keep on ice until use or freeze in aliquots (2 plates/tube) in −70° C.
Prepare ^125I-PYY (for 2×96-well compound plates)
Dilute 50 uCi ^125I-PYY in 1 ml H2O
Add 0.4 ml 10% BSA to 20 ml Binding buffer
Add 150 μl ^125I-PYY, mix well
NSB (1 μM PYY final conc.): 40 μl PYY (100 μM stock)+60 μl 30% DMSO in HEPES=40 μM PYY—add 5 μl/well
Total Binding: Add 5 μl/well of Compound Diluent
Add 5 μl compound (final conc. @10 μM)
Incubate at R.T. for 1 hr.
Spin plates for 10′ at setting 9 in RT6000 centrifuge
Aspirate supernatant from tubes, add 300 μl PBS and aspirate again.
After plates are washed and aspirated, put individual tubes in 12×75 mm polypropylene carrier tubes. Count on gamma counter.

[2] = biological target: human V1a receptor (Homo sapiens, UniProt P37288); assay: V1a binding assay (3H-AVP displacement, HEK-293 membranes); design: expressed in transfected cells; host or cells: HEK-293 (membranes); conditions: for inhibition at 1 µM: 1.0 μM compound, read-out: V1a@1.0, % Inh; for inhibition at 0.1 µM: 0.1 μM compound, read-out: V1a % Inh @0.1
Outline: (§1)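 Read-out is filter-retained 3H-AVP, counted by scintillation after washing with cold saline/0.05% Tween 20. Binding ran 1 hour at room temperature in pH 7.5 buffer with protease inhibitors; 1.25 μM unlabelled AVP gave non-specific binding.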

[3] = biological target: T2, human V1b receptor (Homo sapiens, UniProt P47901); assay: V1b binding assay (3H-AVP displacement, HEK-293 membranes); design: expressed in transfected cells; host or cells: HEK-293 (membranes); conditions: 10 μM compound; read-out: V1b % Inh @10
T2 sequence (P47901 1-424): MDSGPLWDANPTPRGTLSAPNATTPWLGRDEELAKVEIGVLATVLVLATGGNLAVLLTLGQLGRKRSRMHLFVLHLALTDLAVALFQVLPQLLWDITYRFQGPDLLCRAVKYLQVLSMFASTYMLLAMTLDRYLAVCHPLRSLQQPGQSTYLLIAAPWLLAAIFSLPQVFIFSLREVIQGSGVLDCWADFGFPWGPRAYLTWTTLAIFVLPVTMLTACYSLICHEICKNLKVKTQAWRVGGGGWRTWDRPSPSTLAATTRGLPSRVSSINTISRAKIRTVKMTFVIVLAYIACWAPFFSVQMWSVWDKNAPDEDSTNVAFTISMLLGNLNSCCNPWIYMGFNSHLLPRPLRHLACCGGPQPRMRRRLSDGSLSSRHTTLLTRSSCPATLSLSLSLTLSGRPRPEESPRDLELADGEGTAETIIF
Outline: as §1

[4] = biological target: human V2 receptor (Homo sapiens, UniProt P30518); assay: V2 binding assay (3H-AVP displacement, HEK-293 membranes); design: expressed in transfected cells; host or cells: HEK-293 (membranes); conditions: 1.0 μM compound; read-out: V2@1.0, % Inh
Outline: as §1

Sequence of human V2 receptor (P30518 whole entry): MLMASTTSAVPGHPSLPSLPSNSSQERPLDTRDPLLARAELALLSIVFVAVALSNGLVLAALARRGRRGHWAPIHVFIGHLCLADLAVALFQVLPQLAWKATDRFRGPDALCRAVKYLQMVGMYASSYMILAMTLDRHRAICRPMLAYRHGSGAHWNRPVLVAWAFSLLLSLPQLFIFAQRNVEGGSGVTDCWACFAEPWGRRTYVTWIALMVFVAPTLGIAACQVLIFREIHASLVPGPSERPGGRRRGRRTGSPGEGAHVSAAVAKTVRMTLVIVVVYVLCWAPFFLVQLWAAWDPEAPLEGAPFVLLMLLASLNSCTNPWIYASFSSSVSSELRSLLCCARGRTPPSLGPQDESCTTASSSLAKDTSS
Sequence of human V1a receptor (P37288 whole entry): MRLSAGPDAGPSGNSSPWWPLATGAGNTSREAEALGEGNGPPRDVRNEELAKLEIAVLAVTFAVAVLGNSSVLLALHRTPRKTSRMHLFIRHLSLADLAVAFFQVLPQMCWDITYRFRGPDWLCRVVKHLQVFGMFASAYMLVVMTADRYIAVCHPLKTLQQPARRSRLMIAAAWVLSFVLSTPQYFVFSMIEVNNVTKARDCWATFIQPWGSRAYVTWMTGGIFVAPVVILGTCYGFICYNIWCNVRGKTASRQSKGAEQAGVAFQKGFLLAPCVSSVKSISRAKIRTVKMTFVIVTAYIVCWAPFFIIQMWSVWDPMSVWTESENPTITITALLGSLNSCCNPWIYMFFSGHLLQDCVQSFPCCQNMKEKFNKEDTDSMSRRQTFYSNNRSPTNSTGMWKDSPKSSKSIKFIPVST

| inhibition at 10 µM [1] [%] | IC50 [2] [nM] | inhibition at 10 µM [3] [%] | inhibition at 1 µM [4] [%] | inhibition at 1 µM [2] [%] | inhibition at 0.1 µM [2] [%] | Structure (SMILES) |
| --- | --- | --- | --- | --- | --- | --- |
| 11 | 1900 | 0 | 2 | – | – | O=c1[nH]c2ccccc2n1C1CCN(C(=S)NCc2cccnc2)CC1 [Compound 29] |
| 23 | 390 | 0 | 9 | – | – | CC(Cc1ccc(Cl)cc1)NC(=S)N1CCC(n2c(=O)[nH]c3ccccc32)CC1 (stereo not drawn) [Compound 30] |
| 17 | – | 5 | 15 | 19 | – | O=c1[nH]c2ccccc2n1C1CCN(C(=S)NCCc2ccc([N+](=O)[O-])cc2)CC1 [Compound 31] |
| 26 | – | 4 | 9 | 42 | – | O=c1[nH]c2ccccc2n1C1CCN(C(=S)NC(Cc2ccccc2)c2ccccc2)CC1 (stereo not drawn) [Compound 32] |
| 13 | – | 9 | 0 | 33 | – | O=c1[nH]c2ccccc2n1C1CCN(C(=S)NC2c3ccccc3-c3ccccc32)CC1 [Compound 33] |
| 22 | – | 13 | 21 | 42 | – | O=c1[nH]c2ccccc2n1C1CCN(C(=S)NC(c2ccccc2)c2ccc(Cl)cc2)CC1 (stereo not drawn) [Compound 34] |
| 16 | – | 20 | 0 | 45 | – | CCN(CC)CCn1c(=O)n(C2CCN(C(=S)NC(C)c3ccc(F)cc3)CC2)c2ccccc21 (stereo not drawn) [Compound 36, 1-(N1-Piperidinocarbothioyl-(4-fluoro-[…]-methylbenzylamino)-4-yl)-3-(2-diethyaminoethyl)-1,3-dihydrobenzimidazol-2-one] |
| 0 | – | 8 | 2 | 5 | – | O=c1n(Cc2ccccc2)c2ccccc2n1C1CCN(C(=S)NC(c2ccccc2)c2ccccc2)CC1 [Compound 37, 1-(N1-Piperidinocarbothioyldiphenylmethylamino-4-yl)-3-benzyl-1,3-dihydrobenzimidazol benzimidazol-2-one] |
| 7 | – | 0 | 9 | 25 | – | O=c1[nH]c2ccccc2n1C1CCN(C(=S)NCCCc2ccccc2)CC1 [Compound 38] |
| 18 | – | 7 | 0 | 17 | – | O=c1n(Cc2ccccc2)c2ccccc2n1C1CCN(C(=S)NCCc2ccc(Cl)cc2)CC1 [Compound 39, 1-(N1-Piperidinocarbothioyl-2-(4-chlorophenyl)ethylamino-4-yl)-3-benzyl-1,3-dihydrobenzimidazol-2-one] |
| 17 | 190 | 11 | 0 | – | – | COC(=O)C(Cc1ccccc1)NC(=S)N1CCC(n2c(=O)[nH]c3ccccc32)CC1 (stereo not drawn) [Compound 40] |
| 13 | – | 16 | 10 | 39 | – | CCN(CC)CCn1c(=O)n(C2CCN(C(=S)NC(Cc3ccccc3)C(=O)O)CC2)c2ccccc21 [Compound 43, 1-(N1-Piperidinocarbothioyl-(2-phenyl-1-L-carboxy)amino-4-yl)-3-(2-diethyaminoethyl)-1,3-dihydrobenzimidazol-2-one] |
| 9 | – | 24 | 2 | 37 | – | CC(=O)NCCNC(=O)C(Cc1ccccc1)NC(=S)N1CCC(n2c(=O)[nH]c3ccccc32)CC1 (stereo not drawn) [Compound 44] |
| 16 | – | 26 | 0 | – | 8 | CC(C)(C)OC(=O)NCCNC(=O)C(Cc1ccccc1)NC(=S)N1CCC(n2c(=O)[nH]c3ccccc32)CC1 (stereo not drawn) [Compound 46] |
| 10 | – | 0 | 14 | 45 | – | NC(=O)C(Cc1ccccc1)NC(=S)N1CCC(n2c(=O)[nH]c3ccccc32)CC1 (stereo not drawn) [Compound 47] |
| 22 | – | 3 | 0 | 2 | – | Cc1ccccc1NC(=O)N1CCC(n2c(=O)[nH]c3ccccc32)CC1 [Compound 48] |
| 12 | – | 18 | 0 | 63 | – | O=C(Nc1ccccc1-c1ccccc1)N1CCC(n2c(=O)[nH]c3ccccc32)CC1 [Compound 49] |
| 16 | – | 15 | 0 | 8 | – | COC(=O)[C@@H](Cc1c[nH]c2ccccc12)NC(=S)N1CCC(n2c(=O)[nH]c3ccccc32)CC1 [Compound 50] |
| 2 | – | 19 | 1 | 25 | – | COC(=O)[C@@H](Cc1ccccc1)NC(=S)N1CCC(n2c(=O)[nH]c3ccccc32)CC1 [Compound 51] |
| 4 | – | 18 | 0 | 47 | – | O=C1c2ccccc2C(=O)N1CCCn1c(=O)n(C2CCN(C(=S)NC(c3ccccc3)c3ccccc3)CC2)c2ccccc21 [Compound 54, 1-[(N1-Piperidinocarbothioyldiphenylmethylamino)-4-yl]-3-(3-N-phthalimidopropyl)-1,3-dihydrobenzimidazol-2-one] |
| 22 | 360 | 19 | 3 | – | – | COC(=O)C(Cc1ccccc1)NC(=S)N1CCC(n2c(=O)n(CCCN3C(=O)c4ccccc4C3=O)c3ccccc32)CC1 (stereo not drawn) [Compound 56] |
| 35 | – | 19 | 0 | 49 | – | CCOC(=O)CCn1c(=O)n(C2CCN(C(=S)NC(c3ccccc3)c3ccccc3)CC2)c2ccccc21 [Compound 60, 1-[(N1-Piperidinocarbothioyldiphenylmethylamino)-4-yl]-3-(2-carboethoxyethyl)-1,3-dihydro-benzimidazol-2-one] |
| 90 | – | 22 | 0 | 17 | – | O=C(O)CCn1c(=O)n(C2CCN(C(=S)NC(c3ccccc3)c3ccccc3)CC2)c2ccccc21 [Compound 61, 1-[(N1-Piperidinocarbothioyldiphenylmethylamino)-4-yl]-3-(2-carboxyethyl)-1,3-dihydrobenzimidazol-2-one] |
| 21 | – | 11 | 0 | – | 15 | COc1ccc(C(NC(=S)N2CCC(n3c(=O)[nH]c4ccccc43)CC2)c2ccc(OC)cc2)cc1 [Compound 66, 1-[(N1-Piperidinocarbothioyl-1,1-di(p-anisyl)methylamino)-4-yl]-1,3-dihydrobenzimidazol-2-one] |
